Assay [1] deals with T1, CRTH2 (Homo sapiens, UniProt Q9Y5Y4).
T1 construct: expressed in transfected cells; host or cells: Chinese Hamster Ovary (CHO) cells, G418-selected (CHO/CRTH2)
T1 sequence (Q9Y5Y4 1-395): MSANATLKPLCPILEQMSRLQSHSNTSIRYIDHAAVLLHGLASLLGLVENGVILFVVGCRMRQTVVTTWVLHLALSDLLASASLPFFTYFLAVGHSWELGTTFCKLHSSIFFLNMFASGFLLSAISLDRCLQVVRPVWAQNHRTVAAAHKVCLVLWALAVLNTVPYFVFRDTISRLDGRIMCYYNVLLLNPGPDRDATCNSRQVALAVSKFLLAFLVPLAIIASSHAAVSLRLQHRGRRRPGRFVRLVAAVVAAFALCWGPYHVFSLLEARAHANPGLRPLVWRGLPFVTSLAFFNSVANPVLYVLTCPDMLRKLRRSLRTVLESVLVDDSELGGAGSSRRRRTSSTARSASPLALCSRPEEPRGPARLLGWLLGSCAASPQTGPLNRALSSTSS
Put plainly: Calcium mobilisation assay in CHO/CRTH2 cells (PGD2-induced calcium flux). Type of assay: cell-based. Particulars: for IC50: read-out: IC50, inhibition of PGD2-induced calcium flux. As to the method: (§1) Chinese Hamster Ovary cells were transfected with CRTH2 or DP receptors (CHO/CRTH2 and CHO/DP) and were maintained in culture in a humidified atmosphere at 37° C. (5% CO2) in Minimum Essential Medium (MEM) supplemented with 10% foetal bovine serum, 2 mM glutamine, and 1 mg ml^−1 active G418. The cells were passaged every 2-3 days. For radioligand binding assay, cells were prepared in triple-layer flasks or in 175 cm^2 square flasks (for membrane preparation). For calcium mobilisation assay, cells were grown in a 96 well plate 24 h prior to the assay at a density of 80,000 cells per well.
Cells were seeded onto poly-D-lysine coated 96-well plates at a density of 80,000 cells per well and incubated at 37° C. overnight to allow the cells to adhere. Cells were washed twice with HBSS and incubated for 1 h at 37° C. in 100 μl HBSS and 100 μl calcium-3-dye (Molecular Devices), supplemented with 4 mM probenecid. Changes in fluorescence were monitored over a 50 s time course with agonist addition at 17 s using a Flexstation (Molecular Devices).
For orientation: Calcium flux is commonly read through the fluorescence of an indicator in the cells.

The target of assay [2] is T1, CRTH2. Put plainly: [3H]PGD2 radioligand binding on CHO/CRTH2 cell membranes. Conditions: competition versus [3H]PGD2, CHO/CRTH2 membranes. How it is done:
as §1
(§2) Membranes were prepared either from CHO/CRTH2 and CHO/DP cells, or from platelets (as a source of TP receptors). CHO cells grown to confluency were washed with PBS and detached using a Versene solution (15 ml per flask). When the cells were grown in 175 cm^2 square flask, they were collected by scrapping in PBS. The cell suspensions were centrifuged (1,700 rpm, 10 min, 4° C.) and resuspended in 15 ml of buffer (1×HBSS, supplemented with 10 mM HEPES, pH 7.3). Cell suspensions were then homogenised using an Ultra Turrax at setting 4-6 for 20 s. The homogenate was centrifuged at 1,700 rpm for 10 min and the supernatant was collected and centrifuged at 20,000 rpm for 1 h at 4° C. The resulting pellet was resuspended in buffer and stored at −80° C. in aliquots of 200-500 μl. The protein concentration was determined by the method of Bradford (1976), using bovine serum albumin as standard. The platelets were washed by centrifugation at 600×g for 10 min and resuspended in ice-cold assay buffer (10 mM Tris-HCl, pH 7.4, 5 mM Glucose, 120 mM NaCl, 10 μM indomethacin) and directly centrifuged at 20,000 rpm for 30 min at 4° C. The resulting pellet was treated as described above.
(§3) [^3H]PGD2 (160 Ci/mmol) binding experiments were performed on membranes prepared as described above. Assays were performed in a final volume of 100 μl of buffer (1×HBSS/HEPES 10 mM, pH 7.3). Cell membranes (15 μg). Cell membranes […] were preincubated at room temperature with varying concentration of competing ligand for 15 min. [^3H]PGD2 (mol, final concentration) was then added and the incubation continued for a further one hour at room temperature. The reaction was terminated by the addition of 200 μl ice-cold assay buffer to each well, followed by rapid filtration through Whatman GF/B glass fibre filters using a Unifilter Cell harvester (PerkinElmer Life Sciences) and six washes of 300 μl of ice-cold buffer. The Unifilter plates were dried at room temperature for at least 1 h and the radioactivity retained on the filters was determined on a Beta Trilux counter (PerkinElmer Life Sciences), following addition of 40 μl of Optiphase Hi-Safe 3 (Wallac) liquid scintillation. Non specific binding was defined in the presence of 10 μM unlabelled PGD2. Assays were performed in duplicate.

The next assay concerns the target T2, DP receptor (Homo sapiens, UniProt Q13258).
T2 construct: expressed in transfected cells; host or cells: Chinese Hamster Ovary (CHO) cells, G418-selected (CHO/DP)
T2 sequence (Q13258 1-359): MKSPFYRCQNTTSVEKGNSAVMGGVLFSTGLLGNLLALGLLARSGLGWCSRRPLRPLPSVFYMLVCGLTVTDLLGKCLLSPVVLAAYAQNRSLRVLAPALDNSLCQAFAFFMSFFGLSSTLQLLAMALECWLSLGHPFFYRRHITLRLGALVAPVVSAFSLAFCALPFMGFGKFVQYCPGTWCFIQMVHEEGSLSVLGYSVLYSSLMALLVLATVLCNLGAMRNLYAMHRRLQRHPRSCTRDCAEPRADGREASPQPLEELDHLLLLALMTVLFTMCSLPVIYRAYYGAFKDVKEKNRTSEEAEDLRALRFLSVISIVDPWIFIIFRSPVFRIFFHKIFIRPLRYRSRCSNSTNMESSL
Put plainly: [3H]PGD2 radioligand binding on CHO/DP cell membranes. Particulars: competition versus [3H]PGD2, CHO/DP membranes. How it is done:
as §1, §2, §3

For `Cc1c(C(C)c2nc3ccccc3s2)c2cc(F)ccc2n1CC(=O)O` (racemic) [Compound 19, (±)-3-(1-Benzothiazol-2-yl-ethyl)-5-fluoro-2-methyl-indol-1-yl]-acetic acid], the IC50 at CRTH2 [1] was 34 ± 7 nM.

Regarding `Cc1c(C(C)c2ccc(S(C)(=O)=O)cc2)c2cc(F)ccc2n1CC(=O)O` (stereo not shown) [Compound 4, {5-Fluoro-3-[1-(4-methanesulfonyl-phenyl)-ethyl]-2-methyl-indol-1-yl}-acetic acid], the Ki on CRTH2 [2] was 5 ± 4 nM; on DP receptor, 30400 ± 9810 nM. Also, the IC50 at CRTH2 [1] is 55 ± 18 nM.

Compound `Cc1c(Cc2ccc3ccccc3n2)c2cc(F)ccc2n1CC(=O)O` [Compound 6, (5-Fluoro-2-methyl-3-quinolin-2-ylmethyl-indol-1-yl)-acetic acid] showed a Ki at DP receptor of 17900 ± 7290 nM.

Regarding `Cc1c(Cc2ccc3ccccc3c2)c2cc(F)ccc2n1CC(=O)O` [Compound 7, (5-Fluoro-2-methyl-3-naphthalen-2-ylmethyl-indol-1-yl)-acetic acid], on CRTH2 [1], the half-inhibitory concentration (IC50) worked out at 38 ± 16 nM.

In the case of `Cc1c(Cc2ccc3cccc(O)c3n2)c2cc(F)ccc2n1CC(=O)O` [Compound 8, [5-Fluoro-3-(8-hydroxy-quinolin-2-ylmethyl)-2-methyl-indol-1-yl]-acetic acid], the Ki at CRTH2 [2] came to 6 ± 4 nM; on DP receptor, 7710 ± 1780 nM. Also, the IC50 on CRTH2 [1] turned out to be 11 ± 6 nM.

On to `COc1ccc(Cc2c(C)n(CC(=O)O)c3ccc(F)cc23)cc1` [Compound 10, [5-Fluoro-3-(4-methoxy-benzyl)-2-methyl-indol-1-yl]-acetic acid], for which, on CRTH2 [1], the IC50 worked out at 47 ± 8 nM.

As to `Cc1c(Cc2ccc(Cl)cc2)c2cc(F)ccc2n1CC(=O)O` [Compound 12, [3-(4-Chloro-benzyl)-5-fluoro-2-methyl-indol-1-yl]-acetic acid], the Ki worked out at 11 ± 2 nM on CRTH2 [2] and 12200 ± 2250 nM at DP receptor. At CRTH2 [1], the IC50 came out at 108 ± 29 nM.

With `Cc1c(Cc2nc3ccccc3s2)c2cc(F)ccc2n1CC(=O)O` [Compound 13, (3-Benzothiazol-2-ylmethyl-5-fluoro-2-methyl-indol-1-yl)-acetic acid], the Ki at CRTH2 [2] was found to be 6 ± 1 nM.

`Cc1c(Cc2ccc(S(C)(=O)=O)cc2)c2cc(F)ccc2n1CC(=O)O` [Compound 17, [5-Fluoro-3-(4-methanesulfonyl-benzyl)-2-methyl-indol-1-yl]-acetic acid]: the half-maximal inhibitory concentration (IC50) at CRTH2 [1] is 64 ± 5 nM.

On to `Cc1c(Cc2ccc3cc(F)ccc3n2)c2cc(F)ccc2n1CC(=O)O` [Compound 18, [5-Fluoro-3-(6-fluoro-quinolin-2-ylmethyl)-2-methyl-indol-1-yl]-acetic acid], for which the Ki amounted to 1.3 ± 0.6 nM on CRTH2 [2] and 7740 ± 1440 nM at DP receptor. The IC50 on CRTH2 [1] came out at 10 ± 5 nM.

Consider `O=C(O)Cn1cc(Cc2nc3c(F)c(F)cc(F)c3s2)c2ccccc21` [Compound 20, [3-(4,5,7-Trifluoro-benzothiazol-2-ylmethyl)-indol-1-yl]-acetic acid, reference compound], for which the Ki at CRTH2 [2] turned out to be 886 ± 248 nM; on DP receptor, 3960 nM. Further, at CRTH2 [1], the IC50 was 885 ± 96 nM.

For the compound `CCCCC[C@H](O)/C=C/[C@H]1C(=O)C[C@H](O)[C@@H]1C/C=C\CCCC(=O)O` [PGD2, prostaglandin D2, reference compound], on CRTH2 [1] (agonist, n=3, read-out: EC50, increase in intracellular Ca2+ mobilisation), the EC50 was determined as 2.4 ± 0.5 nM.

In general, IC50 refers to the concentration that inhibits the measured activity by half. As usually defined, the Ki is the dissociation constant of the complex between target and ligand, obtained from inhibition or displacement. A lower Ki goes with a stronger hold on the target. By EC50 is commonly meant the concentration that produces a half-maximal response.

These data come from patent US8163931B2, “Treatment of CRTH2-mediated diseases and conditions” (Oxagen Limited, priority 2003, dated 2012).
